Values quoted from earlier work, collected in US20070155727A1, “Amide inhibitors of leukotriene A4 hydrolase” (Schering Aktiengessellschaft, priority 2005, published 2007).

Key:
[1] = biological target: LTB4 receptor; settings: read-out: Kd, additional lower affinity LTB4 receptors; neutrophils
[2] = biological target: BLT1; settings: human BLT1 and its mouse, rat and guinea pig orthologues
[3] = biological target: T1, LTA4-h (Mus musculus, UniProt P24527); settings: oral administration, mouse blood ex vivo
T1 construct: host or cells: mouse blood ex vivo after oral dosing
T1 sequence (P24527 1-611): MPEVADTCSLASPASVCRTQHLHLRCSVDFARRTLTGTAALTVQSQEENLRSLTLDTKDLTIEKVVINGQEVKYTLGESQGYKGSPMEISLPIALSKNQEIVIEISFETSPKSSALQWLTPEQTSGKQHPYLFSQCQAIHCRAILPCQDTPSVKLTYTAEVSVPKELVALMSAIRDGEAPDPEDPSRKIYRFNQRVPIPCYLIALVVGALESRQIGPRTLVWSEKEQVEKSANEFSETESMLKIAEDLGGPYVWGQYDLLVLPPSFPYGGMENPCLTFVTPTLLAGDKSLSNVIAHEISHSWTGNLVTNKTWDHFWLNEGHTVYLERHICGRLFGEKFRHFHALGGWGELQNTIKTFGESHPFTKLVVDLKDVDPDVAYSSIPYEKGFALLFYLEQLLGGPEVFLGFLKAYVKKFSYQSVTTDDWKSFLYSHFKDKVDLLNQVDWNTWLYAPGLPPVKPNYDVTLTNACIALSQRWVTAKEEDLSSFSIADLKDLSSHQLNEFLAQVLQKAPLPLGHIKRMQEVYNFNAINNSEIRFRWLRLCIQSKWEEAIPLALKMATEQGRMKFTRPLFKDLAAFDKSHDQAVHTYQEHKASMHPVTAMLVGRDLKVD

[4] = biological target: T2, LTA4-h (Rattus norvegicus, UniProt P30349); settings: oral administration, rat peritoneum in vivo
T2 construct: and in rat peritoneum in vivo; host or cells: rat peritoneum in vivo
T2 sequence (P30349 1-611): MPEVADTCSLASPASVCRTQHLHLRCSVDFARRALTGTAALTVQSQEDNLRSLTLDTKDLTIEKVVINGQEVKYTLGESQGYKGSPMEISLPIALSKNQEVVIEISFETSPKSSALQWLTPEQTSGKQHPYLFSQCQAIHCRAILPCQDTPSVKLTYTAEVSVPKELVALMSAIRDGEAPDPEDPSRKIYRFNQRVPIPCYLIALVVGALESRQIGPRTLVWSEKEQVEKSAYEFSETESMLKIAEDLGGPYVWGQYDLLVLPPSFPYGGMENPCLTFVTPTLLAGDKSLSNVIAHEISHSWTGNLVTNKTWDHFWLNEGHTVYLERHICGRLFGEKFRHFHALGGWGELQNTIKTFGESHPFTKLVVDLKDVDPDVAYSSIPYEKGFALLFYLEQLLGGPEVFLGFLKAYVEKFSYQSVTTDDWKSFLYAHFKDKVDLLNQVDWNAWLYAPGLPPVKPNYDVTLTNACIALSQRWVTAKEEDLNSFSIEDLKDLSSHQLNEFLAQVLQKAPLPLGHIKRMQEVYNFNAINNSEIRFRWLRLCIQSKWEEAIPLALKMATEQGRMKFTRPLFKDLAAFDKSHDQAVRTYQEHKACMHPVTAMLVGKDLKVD

[5] = system: colitis; settings: eight weeks of treatment, cotton top tamarins

CCCCC/C=C\C[C@@H](O)/C=C/C=C/C=C\[C@@H](O)CCCC(=O)O [LTB4, Leukotriene B4]
Kd [1]: > 60000 pM
Kd [2]: 100 to 700 pM

CN(CCCOc1ccc(Cc2ccccc2)cc1)CCC(=O)O.Cl [SC57461]
inhibition of ionophore-induced LTB4 production [3]: caused inhibition of ionophore-induced LTB4 production
inhibition of ionophore-induced LTB4 production [4]: caused inhibition of ionophore-induced LTB4 production
colitis symptoms [5]: significantly improved colitis symptoms
